# According to ChEMBL document CHEMBL4765380, “Synthesis, structure and anticancer activity of new geldanamycin amine analogs containing C(17)- or C(20)- flexible and rigid arms as well as closed or open ansa-bridges” (Eur J Med Chem, 2020):
# Columns and labels:
# [1] = Selectivity index, ratio of IC50 for cytotoxicity against human HDF cells to IC50 for cytotoxicity against human SK-OV-3 cells
# [2] = Selectivity index, ratio of IC50 for cytotoxicity against human HDF cells to IC50 for cytotoxicity against human SK-BR-3 cells; type: toxicity, cell-based; details: HDF cells versus SK-BR-3 cells, read-out: Ratio IC50
# [3] = Cytotoxicity against human HDF cells assessed as reduction in cell growth incubated for 72 hrs by SRB assay; type: cell-based; details: HDFa
# SK-BR-3 = experiment: Antiproliferative activity against human SK-BR-3 cells assessed as reduction in cell growth incubated for 72 hrs by SRB assay; type: functional, cell-based; details: SK-BR-3, 72 h
# U-87 MG = experiment: Antiproliferative activity against human U-87 MG cells assessed as reduction in cell growth incubated for 72 hrs by SRB assay; type: functional, cell-based, U-87MG ATCC
# SK-OV-3 = experiment: Antiproliferative activity against human SK-OV-3 cells assessed as reduction in cell growth incubated for 72 hrs by SRB assay; type: functional, cell-based; details: SK-OV-3, 72 h
# [4] = Selectivity index, ratio of IC50 for cytotoxicity against human HDF cells to IC50 for cytotoxicity against human A549 cells; type: toxicity, cell-based; details: HDF cells versus A549 cells, read-out: Ratio IC50
# [5] = Selectivity index, ratio of IC50 for cytotoxicity against human HDF cells to IC50 for cytotoxicity against human U-87 MG cells; type: toxicity, cell-based; details: HDF cells versus U-87 MG cells, read-out: Ratio IC50
# [6] = Selectivity index, ratio of IC50 for cytotoxicity against human HDF cells to IC50 for cytotoxicity against human PC-3 cells; type: toxicity, cell-based; details: HDF cells versus PC-3 cells, read-out: Ratio IC50
# PC-3 = experiment: Antiproliferative activity against human PC-3 cells assessed as reduction in cell growth incubated for 72 hrs by SRB assay; type: functional, cell-based; details: PC-3, 72 h
# A549 = experiment: Antiproliferative activity against human A549 cells assessed as reduction in cell growth incubated for 72 hrs by SRB assay; type: functional, cell-based; details: A549, 72 h
Structure (SMILES),IC50 (SK-BR-3),IC50 (U-87 MG),IC50 (SK-OV-3),IC50 (PC-3),IC50 (A549),Ratio IC50 [1],selectivity ratio [2],IC50 [3],selectivity ratio [4],selectivity ratio [5],selectivity ratio [6]
CO[C@H]1/C=C\C=C(/C)C(=O)NC2=CC(=O)C(NCCCCCCO)=C(C[C@@H](C)C[C@H](OC)[C@H](O)[C@@H](C)/C=C(\C)[C@@H]1OC(N)=O)C2=O,2070 nM,2080 nM,2190 nM,2240 nM,2770 nM,2.74,2.89,5990 nM,2.16,2.88,2.67
CO[C@H]1/C=C\C=C(/C)C(=O)NC2=CC(=O)C(NCCCN3CCCC3)=C(C[C@@H](C)C[C@H](OC)[C@H](O)[C@@H](C)/C=C(\C)[C@@H]1OC(N)=O)C2=O,2060 nM,2040 nM,2820 nM,2730 nM,2610 nM,2.62,3.58,7380 nM,2.83,3.62,2.7
CO[C@H]1/C=C\C=C(/C)C(=O)NC2=CC(=O)C(NC3CCC(O)CC3)=C(C[C@@H](C)C[C@H](OC)[C@H](O)[C@@H](C)/C=C(\C)[C@@H]1OC(N)=O)C2=O (some centres not stated),3830 nM,3710 nM,3160 nM,3290 nM,3310 nM,2.59,2.14,8190 nM,2.47,2.21,2.49
CO[C@H]1/C=C\C=C(/C)C(=O)NC2=CC(=O)C(NCC3COCCOCCOCCOCCO3)=C(C[C@@H](C)C[C@H](OC)[C@H](O)[C@@H](C)/C=C(\C)[C@@H]1OC(N)=O)C2=O (some centres not stated),,2990 nM,2940 nM,2330 nM,2080 nM,1.94,2.48,5710 nM,2.75,1.91,2.26
CO[C@H]1/C=C\C=C(/C)C(=O)NC2=CC(=O)C(NCCN3CCCC3=O)=C(C[C@@H](C)C[C@H](OC)[C@H](O)[C@@H](C)/C=C(\C)[C@@H]1OC(N)=O)C2=O,2050 nM,1770 nM,1540 nM,1830 nM,1600 nM,1.87,1.4,2880 nM,1.8,1.63,1.57
CO[C@H]1/C=C\C=C(/C)C(=O)NC2=CC(=O)C(NNC3=NCCN3)=C(C[C@@H](C)C[C@H](OC)[C@H](O)[C@@H](C)/C=C(\C)[C@@H]1OC(N)=O)C2=O,2090 nM,2090 nM,2470 nM,3110 nM,2710 nM,1.59,1.88,3920 nM,1.45,1.88,1.26
CO[C@@H](/C=C/C=C(/C)C(N)=O)[C@@H](OC(N)=O)/C(C)=C/[C@H](C)[C@@H](O)[C@H](C[C@H](C)CC1=C(NCCCCO)C(=O)C=C(NCCCCO)C1=O)OC,4210 nM,4070 nM,4270 nM,4530 nM,4110 nM,1.49,1.51,6360 nM,1.55,1.56,1.4
CO[C@H]1/C=C\C=C(/C)C(=O)NC2=CC(=O)C(NCc3cccc(N4CCOC4=O)c3)=C(C[C@@H](C)C[C@H](OC)[C@H](O)[C@@H](C)/C=C(\C)[C@@H]1OC(N)=O)C2=O,3390 nM,3180 nM,3030 nM,3210 nM,3730 nM,3.72,3.13,11300 nM,3.02,3.55,3.51
C#CCNC1=C2C[C@@H](C)C[C@H](OC)[C@H](O)[C@@H](C)/C=C(\C)[C@H](OC(N)=O)[C@@H](OC)/C=C\C=C(/C)C(=O)NC(=CC1=O)C2=O,4440 nM,4010 nM,4150 nM,3610 nM,4520 nM,1.9,1.77,7880 nM,1.74,1.97,2.18
CO[C@@H](C=CC=C(C)C(N)=O)[C@@H](OC(N)=O)/C(C)=C/[C@H](C)[C@@H](O)[C@H](C[C@H](C)CC1=C(NCCOCCO)C(=O)C=C(NCCOCCO)C1=O)OC,12000 nM,12600 nM,12400 nM,13000 nM,11400 nM,2.53,2.62,31300 nM,2.73,2.49,2.41
CO[C@H]1/C=C\C=C(/C)C(=O)NC2=CC(=O)C(NCCOCCO)=C(C[C@@H](C)C[C@H](OC)[C@H](O)[C@@H](C)/C=C(\C)[C@@H]1OC(N)=O)C2=O,2050 nM,2660 nM,2510 nM,1960 nM,2150 nM,1.99,2.43,4990 nM,2.32,1.88,2.55

# Further molecules by falling IC50 (SK-OV-3), results first:
IC50 (SK-BR-3),IC50 (U-87 MG),IC50 (SK-OV-3),IC50 (PC-3),IC50 (A549),Structure (SMILES),Ratio IC50 [1],selectivity ratio [2],IC50 [3],selectivity ratio [4],selectivity ratio [5],selectivity ratio [6]
2480 nM,2390 nM,2050 nM,2750 nM,2970 nM,CO[C@H]1/C=C\C=C(/C)C(=O)NC2=CC(=O)C(NCc3cccc(CS(=O)(=O)N(C(C)C)C(C)C)c3)=C(C[C@@H](C)C[C@H](OC)[C@H](O)[C@@H](C)/C=C(\C)[C@@H]1OC(N)=O)C2=O,2.62,2.17,5370 nM,1.81,2.25,1.95
2060 nM,2740 nM,2000 nM,1780 nM,2020 nM,CO[C@H]1/C=C\C=C(/C)C(=O)NC2=CC(=O)C(NCc3ccc(CS(N)(=O)=O)cc3)=C(C[C@@H](C)C[C@H](OC)[C@H](O)[C@@H](C)/C=C(\C)[C@@H]1OC(N)=O)C2=O,2.48,2.41,4960 nM,,1.81,2.9
1770 nM,1100 nM,1850 nM,1010 nM,1680 nM,CO[C@H]1/C=C\C=C(/C)C(=O)NC2=CC(=O)C(NC3CCN(Cc4ccccc4)CC3)=C(C[C@@H](C)C[C@H](OC)[C@H](O)[C@@H](C)/C=C(\C)[C@@H]1OC(N)=O)C2=O,2.64,2.76,4880 nM,2.9,4.14,4.83
1030 nM,1120 nM,1730 nM,1660 nM,970 nM,CO[C@H]1/C=C\C=C(/C)C(=O)NC2=CC(=O)C(NC3CCN(C(C)=O)CC3)=C(C[C@@H](C)C[C@H](OC)[C@H](O)[C@@H](C)/C=C(\C)[C@@H]1OC(N)=O)C2=O,2.42,4.07,4190 nM,4.32,,2.52
1020 nM,1220 nM,1660 nM,1480 nM,1190 nM,CCCCOCCOCCNC1=C2C[C@@H](C)C[C@H](OC)[C@H](O)[C@@H](C)/C=C(\C)[C@H](OC(N)=O)[C@@H](OC)/C=C\C=C(/C)C(=O)NC(=CC1=O)C2=O,1.59,2.59,2640 nM,2.22,2.16,1.78
1840 nM,1040 nM,1350 nM,1520 nM,1130 nM,CO[C@H]1/C=C\C=C(/C)C(=O)NC2=CC(=O)C(NCc3ccccc3F)=C(C[C@@H](C)C[C@H](OC)[C@H](O)[C@@H](C)/C=C(\C)[C@@H]1OC(N)=O)C2=O,1.99,1.46,2690 nM,2.38,2.59,1.77
1130 nM,1250 nM,1110 nM,1370 nM,1050 nM,CO[C@H]1/C=C\C=C(/C)C(=O)NC2=CC(=O)C(NCCO)=C(C[C@@H](C)C[C@H](OC)[C@H](O)[C@@H](C)/C=C(\C)[C@@H]1OC(N)=O)C2=O,3.58,3.51,3970 nM,3.78,3.18,2.9
870 nM,850 nM,990 nM,810 nM,830 nM,Nc1ccn([C@@H]2O[C@H](CO)[C@@H](O)[C@@H]2O)c(=O)n1 [CYTARABINE],6,6.83,5940 nM,7.16,6.99,7.33
600 nM,,125 nM,18 nM,,COc1c(O)cc2cc1C[C@@H](C)C[C@H](OC)[C@H](O)[C@@H](C)/C=C(\C)[C@H](OC(N)=O)[C@@H](OC)CC/C=C(\C)C(=O)N2 [REBLASTATIN],54,53,,,,54
